{
  "source": "patent US6905834B1",
  "about": "“Bioluminescent bioreporter integrated circuit detection methods” (UT-Battelle, LLC, priority 1997, dated 2005)",
  "key": {"[1]": {"tested_on": "S. cerevisiae HER", "assay": "Sol-gel encapsulated yeast β-galactosidase bioreporter for estrogenic activity", "type": "cell-based, Saccharomyces cerevisiae", "conditions": "over a seven day period; comparable to non-encapsulated positive control", "method": "Sol-gel encapsulation studies substituting another yeast strain, S. cerevisiae HER, a β-galactosidase bioreporter for estrogenic activity were conducted. Strain HER was successfully incorporated into the sol-gel matrix while retaining responsiveness to the estrogen inducer β-estradiol."}, "[2]": {"tested_on": "N. europaea Km^r hao-lux", "assay": "Bioluminescence response of N. europaea hao-lux fusion to NH4+", "type": "cell-based, Nitrosomonas europaea", "method": "The NH4^+ detection limits were determined to be 20 μM at 30 min of exposure and 10 μM at 60 min or 90 min of exposure (threefold increase over background bioluminescence)."}},
  "data": [
    {"compound": "C[C@]12CC[C@@H]3c4ccc(O)cc4CC[C@H]3[C@@H]1CC[C@@H]2O", "note": "[β-estradiol]", "values": [
      {"measurement": "estrogenic response of sol-gel encapsulated yeast cells (in words)", "setting": "[1]", "result": "an estrogenic response was initiated"}
    ]},
    {"compound": "N.N.O=S(=O)(O)O", "note": "[NH4^+, (NH4)2SO4]", "values": [
      {"measurement": "NH4^+ detection limit (threefold increase over background bioluminescence)", "setting": "[2]; 30 min of exposure", "result": 20, "unit": "µM"},
      {"measurement": "NH4^+ detection limit (threefold increase over background bioluminescence)", "setting": "[2]; 60 min or 90 min of exposure", "result": 10, "unit": "µM"}
    ]}
  ]
}
